Data: patent US7323444B2, “Use of kahalalide compounds for the manufacture of a medicament for the treatment of psoriasis” (Pharma Mar, S.A.U., priority 2003, dated 2008)

Legend:
[1] = cited from earlier work
solid tumour cell lines = conditions: preclinical studies, in vitro; cited from earlier work
psoriasis = test system: psoriasis
Protocol: This phase I Clinical and Pharmacokinetic study was designed to determine the safety of Kahalalide F administered as a weekly infusion over 1 hour in patients with solid tumours. This trial was addressed to any solid tumours and was designed as a classical escalation. The patient was a patient with a psoriasis history since more than 40 years.

C/C=C1\NC(=O)[C@H](Cc2ccccc2)NC(=O)[C@@H](C(C)C)NC(=O)[C@@H](C(C)CC)NC(=O)[C@H](NC(=O)[C@H](NC(=O)[C@H](CCCN)NC(=O)[C@H]2CCCN2C(=O)[C@H](NC(=O)[C@@H](NC(=O)C(NC(=O)[C@H](NC(=O)CCCC(C)C)C(C)C)[C@@H](C)O)C(C)C)C(C)C)C(C)CC)C(C)OC(=O)[C@H](C(C)C)NC1=O (stereo partly shown) [kahalalide F]
maximum tolerated dose (MTD) ([1]; female mice, single bolus iv injection): 0.28 mg/kg | acute toxicity on repeated administration ([1]; mice, 280 μg/kg once daily times five): without any apparent evidence of acute toxicity | toxicity of single doses just above the MTDiv ([1]; mice, single iv doses just above MTD, signs of neurotoxicity followed by death): extremely toxic | activity against solid tumour cell lines (solid tumour cell lines): significant activity | psoriasic symptoms after the first infusion (psoriasis; one patient, severe psoriasis, 650 μg/m^2 weekly iv infusion over 1 hour, after first infusion): quick improvement of the psoriasic symptoms | remission of the cutaneous plaques with the following infusions (psoriasis; same patient, 650 μg/m^2 weekly, total of 7 infusions): nearly complete remission of the cutaneous plaques | psoriasis status after end of treatment (psoriasis; same patient, two months after the last dose): still in a nearly complete remission situation
